Where two headings read alike, the source gives them in different places.
Experiments:
[1] = tested on: neural progenitor cells (NPCs); assay: Neurogenesis from NPCs co-cultured with microglia pre-activated by aggregated Aβ and cytokines; assay type: cell-based, mouse; details: 10 days; Aβ 5 μM 48 h, cytokines 10 ng/ml
Experimental: (xx) Reagents. Recombinant mouse IFN-γ and IL-4 (both containing endotoxin at a concentration below 0.1 ng/μg cytokine) were obtained from R&D Systems (Minneapolis, Minn.). β-amyloid peptides [amyloid protein fragment 1-40 and 1-42 (Aβ1-40/1-42)] were purchased from Sigma-Aldrich, St. Louis, Mo. The Aβ peptides were dissolved in endotoxin-free water, and Aβ aggregates were formed by incubation of Aβ, as described (Ishii et al., 2000). (xxv) Neural progenitor cell culture. Coronal sections (2 mm thick) of tissue containing the subventricular zone of the lateral ventricle were obtained from the brains of adult C57B1/6J mice. […] After centrifugation at 110×g for 15 min at room temperature, the tissue was mechanically dissociated by pipette trituration. Cells obtained from single-cell suspensions were plated (3500 cells/cm^2) in 75-cm^2 Falcon tissue-culture flasks (BD Biosciences, San Diego, Calif.), in NPC-culturing medium [Dulbecco's modified Eagles's medium (DMEM)/F12 medium (Gibco/Invitrogen, Carlsbad, Calif.) containing 2 mM L-glutamine, 0.6% glucose, 9.6 μg/ml putrescine, 6.3 ng/ml progesterone, 5.2 ng/ml sodium selenite, 0.02 mg/ml insulin, 0.1 mg/ml transferrin, 2 μg/ml heparin (all from Sigma-Aldrich, Rehovot, Israel), fibroblast growth factor-2 (human recombinant, 20 ng/ml), and epidermal growth factor (human recombinant, 20 ng/ml; both from Peprotech, Rocky Hill, N.J.)]. Spheres were passaged every 4-6 days and replated as single cells. Green fluorescent protein (GFP)-expressing NPCs were obtained as previously described (Pluchino et al., 2003). (xxvi) Primary microglial culture. Brains from neonatal (P0-P1) C57B1/6J mice were stripped of their meninges and minced with scissors under a dissecting microscope (Zeiss, Stemi DV4, Germany) in Leibovitz-15 medium (Biological Industries, Kibbutz Beit Ha-Emek, Israel). […] The cell suspension was washed in culture medium for glial cells [DMEM supplemented with 10% fetal calf serum (FCS; Sigma-Aldrich, Rehovot), L-glutamine (1 mM), sodium pyruvate (1 mM), penicillin (100 U/ml), and streptomycin ([…])] and cultured at 37° C./5% CO2 in 75-cm^2 Falcon tissue-culture flasks (BD Biosciences) coated with poly-D-lysine (PDL) (10 mg/ml; Sigma-Aldrich, Rehovot) in borate buffer (2.37 g borax and 1.55 g boric acid dissolved in 500 ml sterile water, pH 8.4) for 1 h, then rinsed thoroughly with sterile, glass-distilled water. Half of the medium was changed after 6 h in culture and every 2nd day thereafter, starting on day 2, for a total culture time of 10-14 days. […]

[2] = tested on: spinal cord injury (SCI) in C57B1/6J mice; assay type: in vivo, mouse
[3] = tested on: neural progenitor cells (NPCs); assay: Oligodendrocyte differentiation (NG2, RIP, GalC) of NPCs co-cultured with activated microglia; assay type: cell-based, mouse; details: agent added to NPCs co-cultured with MG(IFN-γ)
Experimental: (iii) Neural progenitor cell (NPC) culture. Coronal sections (2 mm thick) of tissue containing the subventricular zone of the lateral ventricle were obtained from the brains of adult C57B16/J mice. The tissue was minced and then incubated for digestion at 37° C., 5% CO2 for 45 min in Earle's balanced salt solution containing 0.94 mg/ml papain (Worthington, Lakewood, N.J.) and 0.18 mg/ml of L-cysteine and EDTA. After centrifugation at 110×g for 15 min at room temperature, the tissue was mechanically dissociated by pipette trituration. Cells obtained from single-cell suspensions were plated (3500 cells/cm^2) in 75-cm^2 Falcon tissue-culture flasks (BD Biosciences, Franklin Lakes, N.J.), in NPC-culturing medium [Dulbecco's modified Eagles's medium (DMEM)/F12 medium (Gibco/Invitrogen, Carlsbad, Calif.) containing 2 mM L-glutamine, 0.6% glucose, 9.6 μg/ml putrescine, 6.3 ng/ml progesterone, 5.2 ng/ml sodium selenite, 0.02 mg/ml insulin, 0.1 mg/ml transferrin, 2 μg/ml heparin (all from Sigma-Aldrich, Rehovot, Israel), fibroblast growth factor-2 (human recombinant, 20 ng/ml), and epidermal growth factor (human recombinant, 20 ng/ml; both from Peprotech, Rocky Hill, N.J.)]. Spheres were passaged every 4-6 days and replated as single cells. Green fluorescent protein (GFP)-expressing neural progenitor cells (NPCs) were obtained as previously described (Pluchino et al., 2003). […]

## Aβ(1-40): aggregated amyloid protein fragment 1-40
[1]
  neurogenesis (GFP+/βIIIT+ cells) from NPCs co-cultured with treated microglia: blocked neurogenesis and decreased the number of NPCs

## Aβ(1-42): aggregated amyloid protein fragment 1-42
[1]
  neurogenesis (GFP+/βIIIT+ cells) from NPCs co-cultured with treated microglia: negative effect was not exhibited

## MEVGWYRSPFDRVVHLYRNGK [45D peptide, altered MOG 35-55 peptide, serine to aspartic acid substitution]
[2]; immunization in CFA 2.5% M. tuberculosis, without aNPC transplantation (FIG. 7C)
  Basso motor score (BMS), mean±SEM: 2.57±0.24
[2]; vaccination in CFA 2.5% M. tuberculosis 1 week before SCI, aNPCs i.c.v. 1 week after SCI (FIG. 7C)
  Basso motor score (BMS), mean±SEM: 4.11±0.27

## MEVGWYRSPFSRVVHLYRNGK [MOG/CFA, MOG peptide 35-55 emulsified in CFA containing 2.5% Mycobacterium tuberculosis]
[2]; MOG 35-55 in CFA 2.5% M. tuberculosis one week prior to SCI, no aNPCs (FIGS. 7G, 7H)
  Basso motor score (BMS): 0.35±0.2

## MEVGWYRSPFSRVVHLYRNGK [MOG/CFA/PBS, pMOG 35-55 emulsified in CFA, PBS i.c.v. instead of cells]
[2]; immunization immediately after SCI, CFA containing 0.5% Mycobacterium tuberculosis, i.c.v. injection 1 week later (FIG. 7A)
  Basso motor score (BMS), mean±SEM: 2.71±0.5

B1: rTNF-α: recombinant mouse TNF-α (protein)
chain: LRSSSQNSSDKPVAHVVANHQVEEQLEWLSQRANALLANGMDLKDNQLVVPADGLYLVYSQVLFKGQGCPDYVLLTHTVSRFAISYQEKVNLLSAVKSPCPKDTPEGAELKPWYEPIYLGGVFQLEKGDQLSAEVNLPKYLDFAESGQVYFGVIAL
[3]
  oligodendrogenesis induced by MG(IFN-γ): negative effect

B2: OVA/CFA/PBS: nonself protein ovalbumin emulsified in CFA, PBS i.c.v. (protein, UniProt P01012 2-386, looked up)
Ovalbumin: GSIGAASMEFCFDVFKELKVHHANENIFYCPIAIMSALAMVYLGAKDSTRTQINKVVRFDKLPGFGDSIEAQCGTSVNVHSSLRDILNQITKPNDVYSFSLASRLYAEERYPILPEYLQCVKELYRGGLEPINFQTAADQARELINSWVESQTNGIIRNVLQPSSVDSQTAMVLVNAIVFKGLWEKAFKDEDTQAMPFRVTEQESKPVQMMYQIGLFRVASMASEKMKILELPFASGTMSMLVLLPDEVSGLEQLESIINFEKLTEWTSSNVMEERKIKVYLPRMKMEEKYNLTSVLMAMGITDVFSSSANLSGISSAESLKISQAVHAAHAEINEAGREVVGSAEAGVDAASVSEEFRADHPFLFCIKHIATNAVLFFGRCVSP
modifications: emulsified in CFA
[2]; OVA in CFA 2.5% M. tuberculosis, i.c.v. injection 1 week later (FIG. 7F)
  Basso motor score (BMS): 2.2±0.68

From patent US20090191173A1, “Induction Of Neurogenesis And Stem Cell Therapy In Combination With Copolymer 1” (priority 2004, published 2009)
